Test results reported in BindingDB's records for doi:10.1073/pnas.250483897 (University of Berne, 2000).
Several values for one entry are separate records, joined by “and”; a condition that tells them apart may be missing. Equal values may be shown once. Starred links: 1 amine or outer side, 2 acyl side, 3 side chain; linkers in the order of their positions; H or OH if unused. Positions of bridges follow the written chain, without caps; N, C: chain ends. Non-standard residues stand in square brackets, D forms with d. Residues, ends and D or L forms follow the SMILES beside them. *: point of attachment. pNA = O=[N+]([O-])c1ccc(N*)cc1; Nle = CCCC[CH](N)C(=O)O; CO = O=C([*:1])[*:2]

Tests used:
[1] = target: Somatostatin receptor type 5 (Homo sapiens, UniProt P35346)
[2] = target: Somatostatin receptor type 3 (Homo sapiens, UniProt P32745)
[3] = target: Somatostatin receptor type 4 (Homo sapiens, UniProt P31391); conditions: IC50 (nM)
Chain of Somatostatin receptor type 4 (P31391 whole entry): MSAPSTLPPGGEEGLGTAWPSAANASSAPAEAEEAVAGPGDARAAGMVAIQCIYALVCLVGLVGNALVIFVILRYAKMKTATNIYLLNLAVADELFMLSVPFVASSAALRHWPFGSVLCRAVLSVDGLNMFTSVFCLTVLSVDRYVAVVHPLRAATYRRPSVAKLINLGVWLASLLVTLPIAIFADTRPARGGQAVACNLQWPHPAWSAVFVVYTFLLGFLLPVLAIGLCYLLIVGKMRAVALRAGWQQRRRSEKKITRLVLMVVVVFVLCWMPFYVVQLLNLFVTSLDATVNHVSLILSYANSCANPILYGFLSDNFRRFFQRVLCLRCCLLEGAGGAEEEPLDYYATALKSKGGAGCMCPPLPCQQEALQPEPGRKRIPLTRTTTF

Chain of Somatostatin receptor type 3 (P32745 whole entry): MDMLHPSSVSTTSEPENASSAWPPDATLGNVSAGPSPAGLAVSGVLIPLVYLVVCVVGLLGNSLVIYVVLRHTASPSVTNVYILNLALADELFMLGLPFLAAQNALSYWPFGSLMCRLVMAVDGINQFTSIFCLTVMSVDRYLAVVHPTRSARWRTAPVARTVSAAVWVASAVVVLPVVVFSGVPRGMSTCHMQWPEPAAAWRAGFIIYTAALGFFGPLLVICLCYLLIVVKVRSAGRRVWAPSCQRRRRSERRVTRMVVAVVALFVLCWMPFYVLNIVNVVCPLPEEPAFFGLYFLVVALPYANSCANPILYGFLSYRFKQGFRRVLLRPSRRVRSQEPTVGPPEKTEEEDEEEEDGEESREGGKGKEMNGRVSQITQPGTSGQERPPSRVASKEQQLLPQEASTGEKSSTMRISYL
Chain of Somatostatin receptor type 5 (P35346 whole entry): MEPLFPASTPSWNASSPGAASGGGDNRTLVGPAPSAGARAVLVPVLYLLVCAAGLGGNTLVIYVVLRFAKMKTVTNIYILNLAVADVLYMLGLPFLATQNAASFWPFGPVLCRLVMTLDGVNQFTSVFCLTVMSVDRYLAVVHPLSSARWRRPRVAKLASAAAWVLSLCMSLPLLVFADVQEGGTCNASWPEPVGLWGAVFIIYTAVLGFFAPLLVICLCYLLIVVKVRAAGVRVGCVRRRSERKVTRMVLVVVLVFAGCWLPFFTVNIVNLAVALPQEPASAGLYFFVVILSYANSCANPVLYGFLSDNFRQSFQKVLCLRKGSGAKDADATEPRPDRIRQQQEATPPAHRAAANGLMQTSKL

SMILES	IC50 [1]	IC50 [2]	IC50 [3]
C[C@@H](O)[C@@H]1NC(=O)[C@H](CCCCN)NC(=O)[C@@H](Cc2c[nH]c3ccccc23)NC(=O)[C@H](Cc2ccccc2)NC(=O)[C@H](Cc2ccccc2)NC(=O)[C@@H](N)CSSC[C@@H](C(=O)O)NC(=O)[C@H](Cc2ccccc2)NC1=O [H-c(Cys3-Phe6-Phe7-DTrp8-Lys9-Thr10-Phe11-Cys14)-OH] (H-CFF[dW]KTFC-OH; disulfide 1-8)	45 nM	13 nM	1.3 nM
C[C@@H](O)[C@@H]1NC(=O)[C@H](CCCCN)NC(=O)[C@@H](N(C)C(=O)c2ccc3ccccc3c2)NC(=O)[C@H](Cc2ccccc2)NC(=O)[C@H](Cc2ccccc2)NC(=O)[C@H](N)CSSC[C@@H](C(=O)O)NC(=O)[C@H](Cc2ccccc2)NC1=O [des-AA 1,2,4,5,12,13[D-Cys3, D-Agl8(Me,2-naphthoyl)]-SS]	–	115 nM	> 10000 nM
CCCCC(NC(=O)NC(Cc1ccccc1)C(=O)Nc1ccc([N+](=O)[O-])cc1)C(=O)NC(CCCCN)C(=O)OC (stereo unspecified) [CAS_5311373] ({pNA-Phe-CO}-[Nle]-Lys-OMe; configuration not given here)	> 10000 nM	127 nM	> 10000 nM
C[C@@H](O)[C@@H]1NC(=O)[C@H](CCCCN)NC(=O)[C@@H](NC(=O)c2ccc3ccccc3c2)NC(=O)[C@H](Cc2ccccc2)NC(=O)[C@H](Cc2ccccc2)NC(=O)[C@@H](N)CSSC[C@@H](C(=O)O)NC(=O)[C@H](Cc2ccccc2)NC1=O [des-AA 1,2,4,5,12,13[D-2Nal8]-SS (ODN-8)]	–	–	165 nM
C[C@@H](O)[C@@H]1NC(=O)[C@H](CCCCN)NC(=O)[C@@H](N(C)C(=O)c2ccc3ccccc3c2)NC(=O)[C@H](Cc2ccccc2)NC(=O)[C@H](Cc2ccccc2)NC(=O)[C@@H](N)CSSC[C@@H](C(=O)O)NC(=O)[C@H](Cc2ccccc2)NC1=O [des-AA 1,2,4,5,12,13[DAgl8(Me,2-naphthoyl)]-SS]	> 10000 nM	70 nM	> 10000 nM
C[C@@H](O)[C@@H]1NC(=O)[C@H](CCCCN)NC(=O)[C@@H](N(C)C(=O)c2ccc3ccccc3c2)NC(=O)[C@H](Cc2ccc(O)cc2)NC(=O)[C@H](Cc2ccccc2)NC(=O)[C@H](N)CSSC[C@@H](C(=O)O)NC(=O)[C@H](Cc2ccccc2)NC1=O [des-AA 1,2,4,5,12,13[D-Cys3,Tyr7, D-Agl8(Me,2-naphthoyl)]-SS]	> 10000 nM	39 nM	> 10000 nM and 1000 nM

The remaining lines, values ahead:

IC50 [1]	IC50 [2]	IC50 [3]	SMILES
> 10000 nM	6.7 nM	> 10000 nM	C[C@@H](O)[C@@H]1NC(=O)[C@H](CCCCN)NC(=O)[C@@H](N(C)C(=O)c2ccc3ccccc3c2)NC(=O)[C@H](Cc2ccc(O)cc2)NC(=O)[C@H](Cc2ccccc2)NC(=O)[C@H](NC(N)=O)CSSC[C@@H](C(=O)O)NC(=O)[C@H](Cc2ccccc2)NC1=O [Carbamoyl-des-AA 1,2,4,5,12,13[D-Cys3,Tyr7, D-Agl8(Me,2-naphthoyl)]-SS(sst3-ODN-8)]
13 nM	6.8 nM	2.5 nM	CSCC[C@H](NC(=O)[C@H](CCCN=C(N)N)NC(=O)[C@@H](N)CC(=O)O)C(=O)N1CCC[C@H]1C(=O)N[C@H]1CSSC[C@@H](C(=O)N[C@@H](CCCCN)C(=O)O)NC(=O)[C@H](CO)NC(=O)[C@H](CO)NC(=O)[C@H](Cc2ccccc2)NC(=O)[C@H]([C@@H](C)O)NC(=O)[C@H](CCCCN)NC(=O)[C@H](Cc2c[nH]c3ccccc23)NC(=O)[C@H](Cc2ccccc2)NC(=O)[C@H](Cc2ccccc2)NC(=O)[C@H](CC(N)=O)NC(=O)[C@H](CCCN=C(N)N)NC1=O [Cortistatin]
